Consider three compounds from patent publication EP4755890A1, “OXO-TRICYCLIC DERIVATIVE AND PHARMACEUTICAL USE THEREOF” (Haisco Pharmaceutical Group Co., Ltd., priority 2023, dated 2025).

pIC50: −log10 of the molar value. Like-named read-outs stand apart in the source and are kept apart here. A value given as a limit tells only on which side of the number the result lay.

Broadly, the AUC(0-t) is the area under the concentration-time curve up to a stated or last time point. Read a high AUC(0-t) as high exposure.

Series [1] in a line: Mouse pharmacokinetic assay. The series is classed as in vivo, Balb/c mice. The conditions noted are these: for pharmacokinetic properties: mouse. The procedure:
4.1. Experimental animals: Male Balb/c mice, about 22 g, 6-8 weeks old, 6 mice/compound. The animals were purchased from CHENGDU DOSSY EXPERIMENTAL ANIMALS CO., LTD.
4.2. Experimental design: On the day of the experiment, the Balb/c mice were randomly grouped according to their body weights. The animals were fasted with water available for 12-14 h one day before the administration, and were fed 4 h after the administration. Table 4. Administration information
Vehicle for intravenous administration: 5% DMA + 5% Solutol + 90% Saline; and vehicle for intragastric administration: 5% DMSO + 95% (20% SBE-β-CD in Saline)
Before and after the administration, 0.03 ml of blood was taken from the orbit under isoflurane anesthesia and placed in an EDTAK2 centrifuge tube. The tube was centrifuged at 5000 rpm at 4°C for 10 min, and plasma was collected. The blood collection time points for the intravenous administration group and intragastric administration group were as follows: 0, 2 min, 5 min, 15 min, 30 min, 1 h, 2 h, 4 h, and 7 h. Before analysis and detection, all samples were stored at - 80°C. Table 5. Pharmacokinetic parameters of test compounds in mouse plasma

The next series deals with T1, CYP2C9 (Homo sapiens, UniProt P11712).
T1 construct: co-incubated with human liver microsomes; from tissue; host or cells: human liver microsomes
T1 sequence (P11712 whole entry): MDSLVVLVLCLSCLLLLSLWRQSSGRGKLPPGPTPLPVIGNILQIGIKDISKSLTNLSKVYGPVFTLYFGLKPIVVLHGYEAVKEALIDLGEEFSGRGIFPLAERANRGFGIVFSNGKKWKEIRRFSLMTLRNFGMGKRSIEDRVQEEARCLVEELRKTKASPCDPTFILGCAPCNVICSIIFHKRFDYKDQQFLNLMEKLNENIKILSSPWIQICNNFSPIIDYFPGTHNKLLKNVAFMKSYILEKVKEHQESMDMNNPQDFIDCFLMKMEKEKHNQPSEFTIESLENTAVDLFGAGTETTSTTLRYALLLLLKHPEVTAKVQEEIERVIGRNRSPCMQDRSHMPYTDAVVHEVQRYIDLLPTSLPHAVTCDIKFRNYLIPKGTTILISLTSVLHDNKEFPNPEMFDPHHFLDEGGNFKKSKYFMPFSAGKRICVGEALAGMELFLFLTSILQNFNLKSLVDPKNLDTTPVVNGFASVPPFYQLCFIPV
Put plainly: CYP450 enzyme activity inhibition assay, CYP2C9. Type of series: in vitro ADME. The procedure:
The purpose of this study was to evaluate the effects of the test compounds on the activities of five isoenzymes (CYP1A2, CYP2C9, CYP2C19, CYP2D6, and CYP3A4) of human liver microsomal cytochrome P450 (CYP) using an in vitro testing system. The specific probe substrates for each CYP450 isoenzyme were co-incubated with human liver microsomes and the test compounds at different concentrations, and reduced nicotinamide adenine dinucleotide phosphate (NADPH) was added to initiate the reaction. After the reactions were completed, the samples were treated, and liquid chromatography-tandem mass spectrometry (LC-MS/MS) was used to quantitatively detect metabolites produced by the specific substrates. The changes in CYP enzyme activities were determined, and the IC50 values were calculated to evaluate the inhibitory potential of the test compounds against each CYP enzyme subtype.

The next series addresses T2, hERG potassium channel (Homo sapiens, UniProt Q12809).
T2 construct: expressed in transfected cells
Put plainly: hERG potassium channel activity assay (manual whole-cell patch clamp). Type of series: cell-based. The source says: Experimental platform: Manual electrophysiological patch-clamp system
Cell line: Chinese hamster ovary (CHO) cell line stably expressing hERG potassium channel
Experimental method: In Chinese Hamster Ovary (CHO) cells stably expressing hERG potassium channel, whole-cell patch-clamp technique was used to record hERG potassium channel current at room temperature. The glass microelectrodes were pulled from glass electrode blanks (BF150-86-10, Sutter) by a glass microelectrode puller. The tip resistance of the microelectrodes after being filled with intrapipette solution was about 2-5 MΩ. The glass microelectrodes were connected to the patch-clamp amplifier by inserting them into an amplifier probe. The clamping voltage and data recording were controlled and recorded by the pClamp 10 software through a computer, with a sampling frequency of 10 kHz and a filtering frequency of 2 kHz. […]
Compound IC50 was calculated using GraphPad Prism 5 software by fitting according to the following equation: Y = Bottom + (Top−Bottom)/(1+10^(∧)((LogIC50−X)*HillSlope)) [formula] where X is the Log value of the test compound concentration, Y is the inhibition percentage at the corresponding concentration, and Bottom and Top are the minimum and maximum inhibition percentage, respectively.

A further series deals with HT-29 cells. Put plainly: HT-29 cell proliferation inhibition assay (CellTiter-Glo). The series is classed as cell-based. Conditions: Homo sapiens, 96 h, 4 days, read-out: Inhibitory activity against HT-29 cell proliferation IC50. The procedure:
The culture conditions for HT-29 cells were as follows: DMEM + 10% FBS + 1% penicillin-streptomycin, and the cells were cultured in an incubator with 5% CO2 at 37°C. On the first day, the HT-29 cells in the exponential growth phase were collected and plated in 96-well cell culture plates at a density of 1000 cells/well (180 µL/well). The plates were cultured overnight in an incubator with 5% CO2 at 37°C. T0 wells were plated simultaneously during the plating process. The next day, 20 µL of compounds at different concentrations were added to each well (nine compound concentration gradients, one DMSO well, and one blank well; each compound concentration was plated in triplicate), and the final concentration of DMSO in each well was 0.1%. The plates were cultured in an incubator with 5% CO2 at 37°C for 4 days. On the same day of compound addition, the T0 plate was detected using the CellTiter-Glo Kit, and the detected value was recorded as RLU0. After the culture was completed, 100 µL of detection solution (Cell Viability Assay, Promega) was added to each well. The plates were incubated at room temperature for 10 minutes with slow shaking. The chemiluminescence reading was read using a BMG microplate reader (PHERAstar FSX). The results were processed according to Formula (4) to calculate the proliferation inhibition rate of compounds at each concentration. Curve fitting was performed via a four-parameter logistic model using GraphPad Prism software, and the GI50 value (the concentration of the compound when the proliferation inhibition rate was 50%) was calculated. In the formula, RLUcompound is the readout of the drug-treated group, RLUcontrol is the average value of the compound vehicle control group, and RLUBlank is the average value of the blank control group. [formula]
(ATP-based viability assays read luminescence as a measure of living cells.)

T2 sequence (Q12809 whole entry): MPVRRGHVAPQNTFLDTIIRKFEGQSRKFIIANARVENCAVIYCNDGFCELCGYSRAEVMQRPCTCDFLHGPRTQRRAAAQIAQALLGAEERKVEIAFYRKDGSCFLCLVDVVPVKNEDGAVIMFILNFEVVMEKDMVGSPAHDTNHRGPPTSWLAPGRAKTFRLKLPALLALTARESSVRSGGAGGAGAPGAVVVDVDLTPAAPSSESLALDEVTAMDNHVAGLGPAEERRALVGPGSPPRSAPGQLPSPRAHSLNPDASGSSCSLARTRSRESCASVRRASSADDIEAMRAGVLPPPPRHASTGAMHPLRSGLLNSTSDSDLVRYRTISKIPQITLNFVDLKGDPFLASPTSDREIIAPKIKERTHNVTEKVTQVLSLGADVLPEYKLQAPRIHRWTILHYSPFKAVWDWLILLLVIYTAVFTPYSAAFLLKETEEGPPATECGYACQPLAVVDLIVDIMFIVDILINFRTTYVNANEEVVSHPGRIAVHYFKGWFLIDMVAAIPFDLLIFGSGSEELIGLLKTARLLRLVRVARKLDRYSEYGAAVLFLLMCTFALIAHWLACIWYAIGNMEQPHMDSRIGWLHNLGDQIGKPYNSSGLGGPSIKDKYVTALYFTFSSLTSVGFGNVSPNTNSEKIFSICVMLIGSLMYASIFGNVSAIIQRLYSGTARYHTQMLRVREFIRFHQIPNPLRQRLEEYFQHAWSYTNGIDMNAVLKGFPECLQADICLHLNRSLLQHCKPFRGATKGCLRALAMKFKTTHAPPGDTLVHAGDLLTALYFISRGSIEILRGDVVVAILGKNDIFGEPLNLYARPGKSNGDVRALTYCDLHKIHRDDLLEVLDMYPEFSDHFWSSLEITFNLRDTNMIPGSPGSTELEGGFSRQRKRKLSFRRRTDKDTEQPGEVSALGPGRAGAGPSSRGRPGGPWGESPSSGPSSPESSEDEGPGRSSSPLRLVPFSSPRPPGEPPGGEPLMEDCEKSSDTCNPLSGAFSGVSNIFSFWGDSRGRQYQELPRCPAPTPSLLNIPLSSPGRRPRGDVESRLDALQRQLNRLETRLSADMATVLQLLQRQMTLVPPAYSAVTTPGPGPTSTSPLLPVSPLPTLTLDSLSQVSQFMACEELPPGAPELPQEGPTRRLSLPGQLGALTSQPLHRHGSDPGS

As to `Cc1ncnc(C(=O)N2CCN(c3c4n(c5nc(C6=CCOCC6)nn5c3=O)C(C(=O)Nc3ccc(C(F)(F)F)cc3Cl)CCC4)C[C@H]2C)c1O` (single isomer, unassigned) [Compound 8-B], the pharmacokinetic properties entry in series [1] (result in words) was “favorable”. Moreover, the figures for the pIC50 at CYP2C9 and against hERG potassium channel were under 4.52 and under 4.40, respectively.

`Cc1ncnc(C(=O)N2CCN(c3c4n(c5nc(C6=CCOCC6)nn5c3=O)[C@@H](C(=O)Nc3ccc(C(F)(F)F)cc3Cl)CCC4)CC2)c1O` [Compound 1-B]: the pIC50 in the series on HT-29 cells is at most 5.00; on CYP2C9, under 4.52; at hERG potassium channel, under 4.40. Also, the pharmacokinetic properties result in series [1] (result in words) is “favorable”.

Regarding `Cc1ncnc(C(=O)N2[C@@H](C)CN(c3c4n(c5nc(C6=CCOCC6)nn5c3=O)[C@@H](C(=O)Nc3ccc(C(F)(F)F)cc3Cl)CCC4)C[C@@H]2C)c1O` [Compound 20-A], the pIC50 in the series on HT-29 cells is at most 5.00; against CYP2C9, under 4.52. This compound also had an AUC(0-t) in series [1] (po, mouse plasma, i.g. (10 mg/kg)) of 38500 ng·h/mL. Besides, the bioavailability in series [1] (po, mouse plasma, i.g. (10 mg/kg), read-out: F (%)) is 93.4%; in series [1] (result in words, in mice), “good”. In addition, the exposure level result in series [1] (result in words, in mice) is “high”. Also, the pharmacokinetic properties result in series [1] (result in words) is “favorable”.
